One data set deals with Heliocobacter pylori. Particulars: in vivo; cited from earlier work.
For data set [1] the following is noted: mass spectrophotometry; cited from earlier work.
The nature of data set [2]: Solubility in water / aqueous solutions. It counts as physicochemical. The settings on record: water / aqueous solutions for NMR testing. On the procedure: (§1) The mixture was analyzed by ^1 H NMR.
(§2) Three different solutions were prepared and their ^1 H NMR spectra were recorded in a DRX 400 MHz spectrophotometer at 20° C. Solution a) contained free vitamin B12 (hydroxycobalamin) in a concentration of 2.6 mM.

For data set [3] the following is noted: mass spectrophotometry; cited from earlier work. This is another data set of the same source.
For data set [4] the following is noted: in vivo; cited from earlier work.
The conditions of data set [5]: monkeys, microautoradiographic techniques; terminal axodendritic boutons of the mossy fibres; cited from earlier work.
For data set [6] the following is noted: mass spectrophotometry; cited from earlier work. The source holds these as a separate data set.
For data set [7] the following is noted: mass spectrophotometry; cited from earlier work. The source holds these as a separate data set.
For data set [8] the following is noted: unconjugated clioquinol, injected intravenously; crosses the blood-brain-barrier; cited from earlier work.
In data set [9] the test system is vitamin B12 ([^57 Co]-cyanocobalamine) metabolism. Kind of data set: Influence of clioquinol on vitamin B12 in vivo: [57Co]-cyanocobalamine radioactivity in dissected tissues. Set-up: species or system mice. The procedure: After three days, all of the mice were injected with [^57 Co]-cyanocobalamine. After two days, the animals were sacrificed, and the brain, liver and kidney were dissected and counted in a gamma-counter as thousand cpm/g tissue (wet weight)±SEM. The radioactivities in each of the groups are stated in Table 1 below: […]

For data set [10] the following is noted: mass spectrophotometry; cited from earlier work. The source holds these as a separate data set.
The conditions of data set [11]: cited from earlier work.
The next data set has as its system neurotoxic injury. The settings on record: in vivo; cited from earlier work.
Data set [12] can be described thus: 1H NMR interaction of vitamin B12 with clioquinol glucuronide. It counts as binding. The procedure:
FIG. 1 depicts the NMR spectra of three solutions. Solution a contained vitamin B12 (hydroxycobalamin), at a concentration of 2.6 mM.
as §1, §2

Entries after “also recorded” stand apart in the source; their conditions may differ.

`Oc1c(I)cc(Cl)c2cccnc12` [Clioquinol, 5-chloro-7-iodo-8 hydroxyquinoline]: the “effect in the treatment of Heliocobacter pylori” value in the data set on Heliocobacter pylori is listed as “effective”. In addition, in [1], the “coordination number for Fe(III)” value is 3. Moreover, the solubility in water result in [2] was “cannot be dissolved in aqueous solutions”. Besides, the “coordination number for Cu(II)” value in [3] is on record as 2. Moreover, the excretion result in data set [4] is reported as “excreted through the kidneys as glucuronide or sulfate derivatives; also recorded: excreted through the kidneys as glucuronide derivatives”. Also, the “zinc chelates in the hippocampus” value in data set [5] is given as “form zinc chelates in the hippocampus”. Further, the “coordination number for Co(II)” value in data set [6] was 2. In addition, the “coordination number for Ni(II)” value in data set [7] is given as 2. The “penetration into the nervous system” value in [8] is “extremely rapid penetration into the nervous system”. The “radioactivity, Brain” value in data set [9] (brain, clioquinol 50 mg/kg/day, [57Co]-cyanocobalamine after three days, sacrificed after two days, ±SEM, control 9.4 ± 0.9) is 8.4 ± 1.5 thousand cpm/g tissue (wet wei. For the same molecule, the “amount of vitamin B12 trapped in the kidneys, in words” value in data set [9] (kidney, versus control) is reported as “decreased in the kidney; also recorded: A reduction in the amount of vitamin B12 trapped in the kidneys”. The “radioactivity, Kidney” value in data set [9] (kidney, clioquinol 50 mg/kg/day, [57Co]-cyanocobalamine after three days, sacrificed after two days, ±SEM, control 895 ± 207) is given as 252 ± 61 thousand cpm/g tissue (wet wei. Also, the “radioactivity, Liver” value in data set [9] (liver, clioquinol 50 mg/kg/day, [57Co]-cyanocobalamine after three days, sacrificed after two days, ±SEM, control 97 ± 8) is listed as 85 ± 21 thousand cpm/g tissue (wet wei. The “coordination number for Zn(II)” value in data set [10] is 2. Further, in data set [11], the “concentration in areas of the brain such as the hippocampus, in words” value is “high”. In addition, the “effect in the treatment of neurotoxic injury” value in the data set on neurotoxic injury is “effective”.
For `COC(=O)[C@H]1OC(Oc2c(I)cc(Cl)c3cccnc23)[C@H](OC(C)=O)[C@@H](OC(C)=O)[C@@H]1OC(C)=O` (stereo partly shown) [clioquinol glucuronide, methyl(5-chloro-7-iodo-quinolyl-2',3',4'-tri-O-acetyl-glycopyranosid)uronate], the “shift of resonances in the mixture” value in data set [12] (aromatic region, benzimidazole moiety (vitamin B12), quinoline moiety (clioquinol glucuronide)) was “the same is observed for two resonances of the clioquinol glucuronide”. The “interaction between clioquinol glucuronide and vitamin B12” value in data set [12] (buffered water pH 6.5, 20° C, 2.6 mM vitamin B12 + 10 mM clioquinol glucuronide) is “hydrophobic interaction between clioquinol glucuronide and vitamin B12; also recorded: vitamin B12 binds to clioquinol glucuronide”. The solubility in water result in [2] is “soluble in water”.

These data come from patent publication US5980914A (priority 1997, dated 1999).
